# Measured values taken from BindingDB's records for doi:10.1124/mol.54.2.322 (Georgetown University, 1998).
# Legend:
# [1] = target: Neuronal acetylcholine receptor subunit alpha-3 (Rattus norvegicus, UniProt P04757)
# [2] = target: Nicotinic acetylcholine receptor (Rattus leucopus, UniProt Q62594)
# Nicotinic acetylcholine receptor, sequence (Q62594 whole entry): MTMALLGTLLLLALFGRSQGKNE
# Neuronal acetylcholine receptor subunit alpha-3, sequence (P04757 whole entry): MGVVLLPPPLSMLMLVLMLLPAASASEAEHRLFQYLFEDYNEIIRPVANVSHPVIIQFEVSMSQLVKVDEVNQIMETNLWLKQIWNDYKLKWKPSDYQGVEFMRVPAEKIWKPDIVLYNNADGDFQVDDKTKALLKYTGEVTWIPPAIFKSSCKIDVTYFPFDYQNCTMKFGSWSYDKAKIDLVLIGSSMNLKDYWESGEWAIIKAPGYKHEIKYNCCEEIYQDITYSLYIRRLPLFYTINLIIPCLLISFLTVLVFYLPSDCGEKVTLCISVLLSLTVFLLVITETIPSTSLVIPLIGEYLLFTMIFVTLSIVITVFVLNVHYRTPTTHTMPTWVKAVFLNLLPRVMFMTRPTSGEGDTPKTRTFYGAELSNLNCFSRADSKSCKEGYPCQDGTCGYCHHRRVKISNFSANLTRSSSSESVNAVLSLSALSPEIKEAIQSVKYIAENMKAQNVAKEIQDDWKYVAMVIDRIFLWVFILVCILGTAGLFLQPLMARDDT
Compound,Ki [1] [µM],Ki [2] [µM]
C[N+](C)(C)CCCCCC[N+](C)(C)C [Hexamethoniumdibromide],> 10,> 10
C[N+](C)(C)CCOC(N)=O [(2-Hydroxyethyl)trimethyl ammonium chloride carbamate],3.84,–
CO[C@@H]1CC=C2CCN3CCC4=C(CC(=O)OC4)[C@@]23C1,> 10,–
"O=c1cccc2n1C[C@H]1CNC[C@H]2C1 [(1S,9R)-7,11-diazatricyclo[7.3.1.0~2,7~]trideca-2,4-dien-6-one]",0.195,–
COc1cc2c3cc1Oc1cc(ccc1O)C[C@H]1c4c(cc(OC)c(O)c4Oc4ccc(cc4)C[C@@H]3N(C)CC2)CC[N+]1(C)C [CAS_57-94-3],> 10,2.24
